Measurements published in patent US10875832B2, “Substituted pyrimidines for treating bacterial infections” (FORGE THERAPEUTICS, INC., priority 2015, dated 2020).
Converted amounts (≈) assume the structure as drawn.

Each molecule was assayed on P. aeruginosa 210 delta mexAB-OprM (assay: MIC by broth microdilution, P. aeruginosa 210 delta mexAB-OprM). Conditions: Pseudomonas aeruginosa, read-out: MIC P. aeruginosa 210 delta mexAB-OprM.
Type: cell-based
Experimental: (§1) Minimal inhibitory concentrations (MIC) were determined by the broth microdilution method in accordance with the Clinical and Laboratory Standards Institute (CLSI) guidelines. In brief, organism suspensions were adjusted to a 0.5 McFarland standard to yield a final inoculum between 3×10^5 and 7×10^5 colony-forming units (CFU)/mL. Drug dilutions and inocula were made in sterile, cation adjusted Mueller-Hinton Broth (Beckton Dickinson). An inoculum volume of 100 μL was added to wells containing 100 μL of broth with 2-fold serial dilutions of drug. All inoculated microdilution trays were incubated in ambient air at 35° C. for 18-24 h. […] Performance of the assay was monitored by the use of laboratory quality-control strains and levofloxacin, a compound with a defined MIC spectrum, in accordance with CLSI guidelines.
In the case of `O=C(c1ccc(C#CC#Cc2ccc(NCc3nc[nH]c(=O)c3O)cc2)cc1)N1CCOCC1` [Compound 97], the MIC is reported as over 32 µg/mL.
In the case of `O=c1[nH]cnc(CNc2ccc(C#Cc3ccc(CN4CCOCC4)cc3)cc2)c1O` [Compound 98], the MIC is reported as over 32 µg/mL.
`O=C(c1ccc(C#CC#Cc2ccc(NCc3nc[nH]c(=O)c3O)cc2)cc1)N1CCC[C@H]1CO` [Compound 99] showed an MIC of over 32 µg/mL.
Molecule `CN(C)C1CCN(C(=O)c2ccc(C#CC#Cc3ccc(NCc4nc[nH]c(=O)c4O)cc3)cc2)C1` (stereo not drawn) [Compound 100] has an MIC of over 32 µg/mL.
Work on `O=C(O)c1ccc(C#Cc2ccc(NCc3nc[nH]c(=O)c3O)cc2)cc1` [Compound 101] yielded an MIC of over 32 µg/mL.
`O=c1[nH]cnc(CS(=O)(=O)c2ccc(C#Cc3ccc(CN4CCOCC4)cc3)cc2)c1O` [Compound 102] showed an MIC of 8 to 32 µg/mL (≈ 17.2 to 68.7 µM).
In the case of `O=c1[nH]cnc(CNc2ccc(C#Cc3ccc(-c4nnn[nH]4)cc3)cc2)c1O` [Compound 103], the MIC is reported as over 32 µg/mL.

These molecules were tested on S. aureus ATCC 29213 (assay: MIC by broth microdilution, S. aureus ATCC 29213). Conditions: Staphylococcus aureus, ATCC29213; 35° C., 18-24 h.
Type: cell-based
Experimental: as §1
`O=C(c1ccc(C#CC#Cc2ccc(NCc3nc[nH]c(=O)c3O)cc2)cc1)N1CCOCC1` [Compound 97] was tested, and the MIC was over 32 µg/mL.
Work on `O=c1[nH]cnc(CNc2ccc(C#Cc3ccc(CN4CCOCC4)cc3)cc2)c1O` [Compound 98] yielded an MIC of over 32 µg/mL.
`O=C(c1ccc(C#CC#Cc2ccc(NCc3nc[nH]c(=O)c3O)cc2)cc1)N1CCC[C@H]1CO` [Compound 99] showed an MIC of over 32 µg/mL.
`CN(C)C1CCN(C(=O)c2ccc(C#CC#Cc3ccc(NCc4nc[nH]c(=O)c4O)cc3)cc2)C1` (stereo not drawn) [Compound 100] gave an MIC of over 32 µg/mL.
With `O=C(O)c1ccc(C#Cc2ccc(NCc3nc[nH]c(=O)c3O)cc2)cc1` [Compound 101] the MIC was over 32 µg/mL.
`O=c1[nH]cnc(CS(=O)(=O)c2ccc(C#Cc3ccc(CN4CCOCC4)cc3)cc2)c1O` [Compound 102] gave an MIC of over 32 µg/mL.
`O=c1[nH]cnc(CNc2ccc(C#Cc3ccc(-c4nnn[nH]4)cc3)cc2)c1O` [Compound 103] was tested, and the MIC was over 32 µg/mL.

What follows are molecules tested on E. coli ATCC 25922 (assay: MIC by broth microdilution, E. coli ATCC 25922, no FBS). Conditions: Escherichia coli, ATCC25922, 35° C., 18-24 h.
Type: cell-based
Experimental: as §1
For `O=C(c1ccc(C#CC#Cc2ccc(NCc3nc[nH]c(=O)c3O)cc2)cc1)N1CCOCC1` [Compound 97], the MIC was 1 to 8 µg/mL (≈ 2.2 to 17.6 µM).
With `O=c1[nH]cnc(CNc2ccc(C#Cc3ccc(CN4CCOCC4)cc3)cc2)c1O` [Compound 98] the MIC was 1 to 8 µg/mL (≈ 2.4 to 19.2 µM).
Work on `O=C(c1ccc(C#CC#Cc2ccc(NCc3nc[nH]c(=O)c3O)cc2)cc1)N1CCC[C@H]1CO` [Compound 99] yielded an MIC of over 32 µg/mL.
`CN(C)C1CCN(C(=O)c2ccc(C#CC#Cc3ccc(NCc4nc[nH]c(=O)c4O)cc3)cc2)C1` (stereo not drawn) [Compound 100] was tested, and the MIC was 1 to 8 µg/mL (≈ 2.08 to 16.6 µM).
`O=C(O)c1ccc(C#Cc2ccc(NCc3nc[nH]c(=O)c3O)cc2)cc1` [Compound 101] was tested, and the MIC was over 32 µg/mL.
With `O=c1[nH]cnc(CS(=O)(=O)c2ccc(C#Cc3ccc(CN4CCOCC4)cc3)cc2)c1O` [Compound 102] the MIC was 8 to 32 µg/mL (≈ 17.2 to 68.7 µM).
Molecule `O=c1[nH]cnc(CNc2ccc(C#Cc3ccc(-c4nnn[nH]4)cc3)cc2)c1O` [Compound 103] has an MIC of over 32 µg/mL.

Each molecule was assayed on P. aeruginosa 209 (assay: MIC by broth microdilution, P. aeruginosa 209). Conditions: Pseudomonas aeruginosa, 35° C., 18-24 h.
Type: cell-based
Experimental: as §1
`O=C(c1ccc(C#CC#Cc2ccc(NCc3nc[nH]c(=O)c3O)cc2)cc1)N1CCOCC1` [Compound 97] was tested, and the MIC was over 32 µg/mL.
`O=c1[nH]cnc(CNc2ccc(C#Cc3ccc(CN4CCOCC4)cc3)cc2)c1O` [Compound 98] was tested, and the MIC was over 32 µg/mL.
In the case of `O=C(c1ccc(C#CC#Cc2ccc(NCc3nc[nH]c(=O)c3O)cc2)cc1)N1CCC[C@H]1CO` [Compound 99], the MIC is reported as over 32 µg/mL.
Work on `CN(C)C1CCN(C(=O)c2ccc(C#CC#Cc3ccc(NCc4nc[nH]c(=O)c4O)cc3)cc2)C1` (stereo not drawn) [Compound 100] yielded an MIC of over 32 µg/mL.
Molecule `O=C(O)c1ccc(C#Cc2ccc(NCc3nc[nH]c(=O)c3O)cc2)cc1` [Compound 101] has an MIC of over 32 µg/mL.
In the case of `O=c1[nH]cnc(CS(=O)(=O)c2ccc(C#Cc3ccc(CN4CCOCC4)cc3)cc2)c1O` [Compound 102], the MIC is reported as over 32 µg/mL.
`O=c1[nH]cnc(CNc2ccc(C#Cc3ccc(-c4nnn[nH]4)cc3)cc2)c1O` [Compound 103] gave an MIC of over 32 µg/mL.

What follows are molecules tested on E. coli BW25113 (assay: MIC by broth microdilution, E. coli BW25113, no FBS). Conditions: Escherichia coli, 35° C., 18-24 h.
Type: cell-based
Experimental: as §1
In the case of `O=C(c1ccc(C#CC#Cc2ccc(NCc3nc[nH]c(=O)c3O)cc2)cc1)N1CCOCC1` [Compound 97], the MIC is reported as under 1 µg/mL.
For `O=c1[nH]cnc(CNc2ccc(C#Cc3ccc(CN4CCOCC4)cc3)cc2)c1O` [Compound 98], the MIC was under 1 µg/mL.
For `O=C(c1ccc(C#CC#Cc2ccc(NCc3nc[nH]c(=O)c3O)cc2)cc1)N1CCC[C@H]1CO` [Compound 99], the MIC was 1 to 8 µg/mL (≈ 2.13 to 17.1 µM).
With `CN(C)C1CCN(C(=O)c2ccc(C#CC#Cc3ccc(NCc4nc[nH]c(=O)c4O)cc3)cc2)C1` (stereo not drawn) [Compound 100] the MIC was 1 to 8 µg/mL (≈ 2.08 to 16.6 µM).
`O=C(O)c1ccc(C#Cc2ccc(NCc3nc[nH]c(=O)c3O)cc2)cc1` [Compound 101] showed an MIC of over 32 µg/mL.
`O=c1[nH]cnc(CS(=O)(=O)c2ccc(C#Cc3ccc(CN4CCOCC4)cc3)cc2)c1O` [Compound 102] was tested, and the MIC was 8 to 32 µg/mL (≈ 17.2 to 68.7 µM).
`O=c1[nH]cnc(CNc2ccc(C#Cc3ccc(-c4nnn[nH]4)cc3)cc2)c1O` [Compound 103] gave an MIC of over 32 µg/mL.

What follows are molecules tested on E. coli delta to IC mutant (assay: MIC by broth microdilution, E. coli delta tolC mutant). Conditions: Escherichia coli, read-out: MIC E. coli delta to IC mutant.
Type: cell-based
Experimental: as §1
For `O=C(c1ccc(C#CC#Cc2ccc(NCc3nc[nH]c(=O)c3O)cc2)cc1)N1CCOCC1` [Compound 97], the MIC was under 1 µg/mL.
In the case of `O=c1[nH]cnc(CNc2ccc(C#Cc3ccc(CN4CCOCC4)cc3)cc2)c1O` [Compound 98], the MIC is reported as under 1 µg/mL.
Work on `O=C(c1ccc(C#CC#Cc2ccc(NCc3nc[nH]c(=O)c3O)cc2)cc1)N1CCC[C@H]1CO` [Compound 99] yielded an MIC of under 1 µg/mL.
Work on `CN(C)C1CCN(C(=O)c2ccc(C#CC#Cc3ccc(NCc4nc[nH]c(=O)c4O)cc3)cc2)C1` (stereo not drawn) [Compound 100] yielded an MIC of under 1 µg/mL.
With `O=C(O)c1ccc(C#Cc2ccc(NCc3nc[nH]c(=O)c3O)cc2)cc1` [Compound 101] the MIC was 1 to 8 µg/mL (≈ 2.77 to 22.1 µM).
`O=c1[nH]cnc(CS(=O)(=O)c2ccc(C#Cc3ccc(CN4CCOCC4)cc3)cc2)c1O` [Compound 102] gave an MIC of 8 to 32 µg/mL (≈ 17.2 to 68.7 µM).
For `O=c1[nH]cnc(CNc2ccc(C#Cc3ccc(-c4nnn[nH]4)cc3)cc2)c1O` [Compound 103], the MIC was 1 to 8 µg/mL (≈ 2.59 to 20.8 µM).

The molecules below were run against Klebsiella pneumoniae LpxC (Klebsiella pneumoniae subsp. pneumoniae (strain ATCC 700721 / MGH 78578), UniProt A6T4N9) (assay: Inhibition Assay against Klebsiella pneumoniae LpxC (LC-MS/MS)). Conditions: 0.2 nM Kpn LpxC, 22° C., 60 minutes.
Type: biochemical
Experimental: LpxC inhibition assays were performed using liquid chromatography with tandem mass spectrometry. Assays were performed, in duplicate, in opaque, 96-well microplates in a total assay volume of 50 μL. The incubation mixture contained: LpxC (0.2 nM Kpn), 0.8 μM UDP-3-O—[(R)-3-hydroxymyristoyl]-N-acetyl-glucosamine, 40 mM Bis-Tris/HCl buffer (pH 5.9), 5 mM sodium phosphate buffer (NaH2PO4/Na2HPO4, pH 7.0), 1 mM DTT, 0.1% (w/v) fatty-acid free BSA, 10% DMSO (v/v, with or without compound). The reactions were incubated at 22° C. for 60 minutes (with mild shaking), then terminated by the addition of 25 μL 0.25 N HCl. Samples were analyzed using a LC-MS system to measure native LpxC substrate and reaction product. IC50 analysis was done using GeneData Screener and a four parameter variable slope normalized to controls. Test compounds were prepared as 8-point dose-response curves (factor dilution 2) in triplicate, starting at 1 μM final concentration. Each assay plate included 6 wells used for the Z′ factor calculation, 3 as a positive control for the assay and 3 as a negative control. The robustness was calculated as the median Z′ factor for 5 plates.
`O=C(c1ccc(C#CC#Cc2ccc(NCc3nc[nH]c(=O)c3O)cc2)cc1)N1CCOCC1` [Compound 97] gave an IC50 of 10 to 100 nM.
`O=c1[nH]cnc(CNc2ccc(C#Cc3ccc(CN4CCOCC4)cc3)cc2)c1O` [Compound 98] gave an IC50 of 10 to 100 nM.

The molecules below were run on E. coli imp mutant (assay: MIC by broth microdilution, E. coli imp mutant). Conditions: Escherichia coli, read-out: MIC E. coli imp mutant.
Type: cell-based
Experimental: as §1
For `O=C(c1ccc(C#CC#Cc2ccc(NCc3nc[nH]c(=O)c3O)cc2)cc1)N1CCOCC1` [Compound 97], the MIC was under 1 µg/mL.
With `O=c1[nH]cnc(CNc2ccc(C#Cc3ccc(CN4CCOCC4)cc3)cc2)c1O` [Compound 98] the MIC was 1 to 8 µg/mL (≈ 2.4 to 19.2 µM).
With `O=C(c1ccc(C#CC#Cc2ccc(NCc3nc[nH]c(=O)c3O)cc2)cc1)N1CCC[C@H]1CO` [Compound 99] the MIC was under 1 µg/mL.
For `CN(C)C1CCN(C(=O)c2ccc(C#CC#Cc3ccc(NCc4nc[nH]c(=O)c4O)cc3)cc2)C1` (stereo not drawn) [Compound 100], the MIC was under 1 µg/mL.
`O=C(O)c1ccc(C#Cc2ccc(NCc3nc[nH]c(=O)c3O)cc2)cc1` [Compound 101] was tested, and the MIC was over 32 µg/mL.
For `O=c1[nH]cnc(CS(=O)(=O)c2ccc(C#Cc3ccc(CN4CCOCC4)cc3)cc2)c1O` [Compound 102], the MIC was 8 to 32 µg/mL (≈ 17.2 to 68.7 µM).
Work on `O=c1[nH]cnc(CNc2ccc(C#Cc3ccc(-c4nnn[nH]4)cc3)cc2)c1O` [Compound 103] yielded an MIC of over 32 µg/mL.
